Where two headings read alike, the source gives them in different places.
Assays:
[1] = Example 4: Phase 1 single-ascending dose study in healthy subjects, pharmacokinetics; format: in vivo, human; conditions: single doses 1 to 40 mg
[2] = Example 3: body weight of DIO mice, 4 weeks BID oral dosing; format: in vivo; conditions: for body weight growth rate / body weight at the end of the study: 4 weeks; for body weight growth rate: vehicle 9.2±2.0%; for body weight at the end of the study: vehicle 48.8±0.9; for body weight at baseline: baseline before treatment
Protocol: (§1) Body weight was recorded prior to glucose measurement at baseline and weekly thereafter. All data are represented as group mean±SEM. Data were analyzed using Prism 7.0 (Graphpad software). All normalizations were calculated using terminal body weight. All assigned animals completed the study. […] Treatment effects compared to vehicle were determined using Oneway ANOVA (*, p<0.05; *, P<0.01) followed by Dunnett's test where appropriate.

[3] = Example 2: body weight of DIO mice, 6 weeks once daily oral dosing; format: in vivo; conditions: for terminal body weight: after 6 weeks, mean±SEM; for body weight at baseline: baseline before treatment
Protocol: (§2) Male DIO (diet-induced obesity) mice (C57BLJ6NTac DIO MPF, n=35) were purchased from Taconic Biosciences (Rensselaer, N.Y.). DIO mice were prepared by feeding male C57BL16 mice a high fat diet (HFD, D12492; Research Diets, Inc., New Brunswick, N.J.) from 6-16 weeks of age. A twelve-hour light cycle was maintained throughout study duration. Room temperature was monitored daily and maintained at 22-25° C. DIO mice were housed individually and maintained on the HFD during a 7-day facility acclimation period and throughout the study period. All mice were administered vehicle (5% DMSO/3% ethanol/92% peanut oil) once daily during the acclimation period.
(§3) Compounds were administered once daily in the morning by oral gavage for 6 weeks. Dose volume was maintained at 5 ml/kg throughout the study.
(§4) Whole blood was obtained weekly from fed animals by tail clip for measurement of non-fasted blood glucose (StatStrip; Nova Biomedical, Waltham, Mass.) on day 7, day 14, day 21 and day 35 after first dosing. Body weight was recorded prior to glucose measurement at baseline and weekly thereafter. Oral glucose tolerance tests were performed in fasted mice at baseline (day −1), day 28 and day 42 thereafter. […] At the end of the 6-hour fasting period, mice were challenged with glucose (2 g/kg, 10 ml/kg, by oral gavage). Blood samples were obtained by tail clip at 0, 20, 40, 60, 90 and 120 minutes post-glucose load for assessment of blood glucose by StatStrip. Serum insulin was measured from time 0 blood samples of OGTT using the Mouse/Rat Insulin Kit (MSD #K152BZC; Meso Scale Diagnostics, Rockville, Md.).
(§5) All data are represented as group mean±SEM. Data were analyzed using JMP (SAS software). All normalizations were calculated using terminal body weight. […] Treatment effects compared to vehicle were determined using Oneway ANOVA (*, p<0.05) followed by Dunnett's test where appropriate.

[4] = system: DIO mice; experiment: Example 2: fasted serum insulin in DIO mice; format: in vivo; conditions: for fasted serum insulin on day 42: vehicle 8.2±1.5; for fasted serum insulin at baseline: baseline before treatment
Protocol: as §2, §3, §4, §5

[5] = system: DIO mice; experiment: Example 2: oral glucose tolerance test (OGTT) in DIO mice; format: in vivo; conditions: for decrease of glucose AUC on day 42 compared to baseline: vehicle 12.6±10.3%; for OGTT glucose AUC on day 42: vehicle 27.8±1.2; for OGTT glucose AUC on day 28: vehicle 27.9±1.1; for OGTT glucose AUC at baseline: day −1 before treatment
Protocol: as §2, §3, §4, §5

[6] = system: DIO mice; experiment: Example 2: blood glucose (fasted and fed) in DIO mice; format: in vivo; conditions: for fed glucose on day 35: vehicle 134.5±6.9; for fasted blood glucose at study start: baseline before treatment
Protocol: as §2, §3, §4, §5

[7] = Solubility and hygroscopicity of the drug substance; format: physicochemical
[8] = healthy subjects, cited from earlier work
[9] = system: DIO mice; experiment: Example 3: blood glucose in DIO mice; format: in vivo; conditions: for blood glucose at day 28: vehicle 143.0±7.1; for fasted blood glucose at study start: baseline before treatment
Protocol: as §1, with “thereafter. […]” for “thereafter.”

[10] = Example 4: Phase 1 single-ascending dose study in healthy subjects, safety; conditions: single doses 1 to 40 mg
Source text: Following Screening, subjects received single doses of study drug and were monitored during an in-clinic period and an out-patient follow-up period. Subjects were confined to the study site for Study Days −2 through 7 to collect PK and safety assessments. Following discharge from the study site on Study Day 7, subjects returned to the study site on Study Days 14, 21, 28, and 35.

[11] = system: DIO mice; experiment: Example 2: terminal liver and epididymal fat weights in DIO mice; format: in vivo; conditions: 6 weeks; for epididymal fat weight (% body weight): vehicle 3.4±0.3; for liver weight (% body weight): vehicle 5.6±0.2
Protocol: Animals were terminated using CO2 inhalation and induction of pneumothorax. Four mice from each treatment group were sacrificed at 0.5 hr post dose and four were sacrificed at 4 hours post dose. […] Organ weights (liver, epididymal fat) were recorded. All data are represented as group mean±SEM. Data were analyzed using JMP (SAS software). All normalizations were calculated using terminal body weight. All assigned animals completed the study. […] Treatment effects compared to vehicle were determined using Oneway ANOVA (*, p<0.05) followed by Dunnett's test where appropriate.

[12] = system: DIO mice; experiment: Example 3: oral glucose tolerance test (OGTT) in DIO mice; format: in vivo; conditions: for OGTT glucose AUC on day 28: vehicle 25.5±1.4; for OGTT glucose AUC at baseline: day −1 before treatment
Protocol: as §1, with “All” for “Body weight was recorded prior to glucose measurement at baseline and weekly thereafter. All”

[13] = non-CF BE patients, 28 days, cited from earlier work
[14] = system: DIO mice; experiment: Example 3: fasted serum insulin in DIO mice; format: in vivo; conditions: for fasted serum insulin on day 28: vehicle 7.7±1.6; for fasted serum insulin at baseline: baseline before treatment
Protocol: as §1, with “All” for “Body weight was recorded prior to glucose measurement at baseline and weekly thereafter. All”

[15] = system: HFD-fed mice; conditions: cited from earlier work

CC1=C(C#N)[C@@H](c2ccc(C#N)cc2S(C)(=O)=O)N(C)C(=O)N1c1cccc(C(F)(F)F)c1 [Compound 1, (4S)-4-[4-cyano-2-(methylsulfonyl)phenyl]-3,6-dimethyl-2-oxo-1-[3-(trifluoromethyl)phenyl]-1,2,3,4-tetrahydropyrimidine-5-carbonitrile]
exposure (AUC and Cmax) versus dose [1]: proportional increases in exposure (AUC and Cmax) with dose | body weight growth rate ([2]; 15 mg/kg BID PO): 5.9±1.6% | body weight at the end of the study ([2]; 15 mg/kg BID PO): 47.5 ± 1.3 g | body weight growth rate ([2]; 30 mg/kg BID PO): 2.8±2.3% | body weight at the end of the study ([2]; 30 mg/kg BID PO): 46.0 ± 1.2 g | body weight at baseline ([2]; group assigned to 15 mg/kg BID): 44.8 ± 0.7 g | body weight at baseline ([2]; group assigned to 30 mg/kg BID): 44.8 ± 0.7 g | terminal body weight ([3]; 3 mg/kg/day PO): 49.8 ± 0.9 g | growth rate of body weight ([3]; 15 mg/kg/day PO, 6 weeks, vehicle 14±1.8%): 6.9±1.8% | terminal body weight ([3]; 15 mg/kg/day PO): 47.3 ± 1.1 g | body weight at baseline ([3]; group assigned to 3 mg/kg/day): 42.8 ± 1.1 g | body weight at baseline ([3]; group assigned to 15 mg/kg/day): 42.8 ± 1.0 g | fasted serum insulin on day 42 ([4]; 3 mg/kg/day PO (low dose)): 11.8 ± 1.3 ng/mL | fasted serum insulin on day 42 ([4]; 15 mg/kg/day PO (higher dose)): 5.9 ± 1.5 ng/mL | fasted serum insulin at baseline ([4]; group assigned to 3 mg/kg/day): 3.5 ± 0.5 ng/mL | fasted serum insulin at baseline ([4]; group assigned to 15 mg/kg/day): 5.4 ± 1.0 ng/mL | decrease of glucose AUC on day 42 compared to baseline ([5]; 3 mg/kg PO): 20.0±4.5% | OGTT glucose AUC on day 42 ([5]; 3 mg/kg/day PO): 28.6±0.7 mg/dL/min×10^3 | OGTT glucose AUC on day 28 ([5]; 3 mg/kg/day PO): 24.0±0.9 mg/dL·min×10^3 | decrease of glucose AUC on day 42 compared to baseline ([5]; 15 mg/kg PO): −21.9±5.0% | OGTT glucose AUC on day 42 ([5]; 15 mg/kg/day PO): 26.3±1.1 mg/dL/min×10^3 | OGTT glucose AUC on day 28 ([5]; 15 mg/kg/day PO): 22.7±0.7 mg/dL·min×10^3 | OGTT glucose AUC at baseline ([5]; group assigned to 3 mg/kg/day): 36.3±2.0 mg/dL·min×10^3 | OGTT glucose AUC at baseline ([5]; group assigned to 15 mg/kg/day): 34.4±2.2 mg/dL·min×10^3 | fed glucose on day 35 ([6]; 3 mg/kg/day PO): 128.3 ± 3.4 mg/dL | decrease of fasting glucose from baseline ([6]; 15 mg/kg/day PO, 6 weeks): 11% | fed glucose on day 35 ([6]; 15 mg/kg/day PO): 134.9 ± 4.7 mg/dL | fasted blood glucose at study start ([6]; group assigned to 3 mg/kg/day): 160.3 ± 5.7 mg/dL | fasted blood glucose at study start ([6]; group assigned to 15 mg/kg/day): 164.6 ± 7.3 mg/dL | solubility in acetone ([7]; acetone): soluble | solubility in ethanol ([7]; ethanol): very slightly soluble | hygroscopicity ([7]; normal storage conditions): not hygroscopic | solubility in water ([7]; water): practically insoluble | safety and tolerability ([8]; single and repeated doses up to 1 mg for up to 14 days): safe and well tolerated | serious adverse events (SAEs) ([8]; three Phase 1 studies): no serious AEs (SAEs) were reported | study drug-induced laboratory or ECG abnormalities ([8]; three Phase 1 studies): No safety signals | blood glucose at day 28 ([9]; 15 mg/kg BID PO): 151.9 ± 6.1 mg/dL | blood glucose at day 28 ([9]; 30 mg/kg BID PO): 137.3 ± 4.1 mg/dL | fasted blood glucose at study start ([9]; group assigned to 15 mg/kg BID): 185.1 ± 8.3 mg/dL | fasted blood glucose at study start ([9]; group assigned to 30 mg/kg BID): 180.1 ± 7.0 mg/dL | AE rate compared with placebo subjects [10]: somewhat lower than that in the control (placebo) subjects | effects on laboratory safety evaluations (clinical chemistry and hematology) [10]: no clear effects | serious AEs, discontinuations, deaths [10]: no serious AEs and no discontinuations or deaths | occurrence of headache ([10]; 36 subjects on drug): only observed in one Compound 1 subject | epididymal fat weight (% body weight) ([11]; 3 mg/kg/day PO): 3.1±0.3% | liver weight (% body weight) ([11]; 3 mg/kg/day PO): 6.8±0.3% | epididymal fat weight (% body weight) ([11]; 15 mg/kg/day PO): 3.5±0.2% | liver weight (% body weight) ([11]; 15 mg/kg/day PO): 6.4±0.2% | OGTT glucose AUC on day 28 ([12]; 15 mg/kg BID PO): 24.7±1.9 mg/dL·min×10^3 | OGTT glucose AUC on day 28 ([12]; 30 mg/kg BID PO): 22.4±1.0 mg/dL·min×10^3 | OGTT glucose AUC at baseline ([12]; group assigned to 15 mg/kg BID): 33.8±0.9 mg/dL-min×10^3 | OGTT glucose AUC at baseline ([12]; group assigned to 30 mg/kg BID): 32.8±1.8 mg/dL-min×10^3 | safety and tolerability ([13]; 1.0 mg oral IR tablet): generally safe and well tolerated | SAEs attributed to the drug ([13]; 1.0 mg oral): no SAEs were attributed by the investigator to the drug | study drug-induced laboratory parameter or ECG effects ([13]; 1.0 mg oral): No safety signals | fasted serum insulin on day 28 ([14]; 15 mg/kg BID PO): 5.8 ± 1.4 ng/mL | fasted serum insulin on day 28 ([14]; 30 mg/kg BID PO): 4.0 ± 0.3 ng/mL | fasted serum insulin at baseline ([14]; group assigned to 15 mg/kg BID): 7.0 ± 1.1 ng/mL | fasted serum insulin at baseline ([14]; group assigned to 30 mg/kg BID): 4.9 ± 0.6 ng/mL

CC(C)[C@@H]1C(=O)N(S(C)(=O)=O)[C@@H]2CCN(C(=O)/C=C/CN3CCCCC3)[C@H]21.Cl [GW311616A]
glucose tolerance ([15]; HFD mice (Talukdar 2012)): improved glucose tolerance | insulin sensitivity in glucose clamp/tracer studies ([15]; HFD mice (Talukdar 2012)): increased peripheral and hepatic insulin sensitivity | insulin resistance and body weight gain ([15]; HFD-fed mice (Mansuy-Aubert 2013)): reversed insulin resistance and body weight gain

CN(CCOc1ccc(CC2SC(=O)NC2=O)cc1)c1ccccn1 (stereo not drawn) [rosiglitazone, reference compound]
terminal body weight ([3]; 30 mg/kg/day PO): 55.0 ± 1.4 g | body weight at baseline ([3]; group assigned to 30 mg/kg/day): 42.8 ± 1.0 g | fasted serum insulin on day 42 ([4]; 30 mg/kg/day PO): 1.3 ± 0.1 ng/mL | fasted serum insulin at baseline ([4]; group assigned to 30 mg/kg/day): 5.2 ± 1.1 ng/mL | decrease of fasting glucose compared to baseline ([6]; 30 mg/kg/day PO, 6 weeks): 23% | fasting glucose after 6 weeks of treatment ([6]; 30 mg/kg/day PO, 6 weeks): 125.8 ± 4.8 mg/dL | fed glucose on day 35 ([6]; 30 mg/kg/day PO): 125.5 ± 4.5 mg/dL | fasted blood glucose at study start ([6]; group assigned to 30 mg/kg/day): 164.0 ± 4.0 mg/dL | epididymal fat weight (% body weight) ([11]; 30 mg/kg/day PO): 3.7±0.2% | liver weight (% body weight) ([11]; 30 mg/kg/day PO): 5.0±0.2%
